Laboratory results from paper PMC11942905, “Identification of a Selective Inhibitor of Human NFS1, a Cysteine Desulfurase Involved in Fe-S Cluster Assembly, via Structure-Based Virtual Screening” (International Journal of Molecular Sciences, 2025).

Tests used:
[1] = molecular target: T1, human cystathionine-β-synthase (CBS) (Homo sapiens, UniProt P35520); assay: Selectivity assay, H2S-producing activity of CBS; assay type: biochemical; conditions: at 100 µM
T1 construct: made in house; host or cells: E. coli
T1 sequence (P35520 1-551): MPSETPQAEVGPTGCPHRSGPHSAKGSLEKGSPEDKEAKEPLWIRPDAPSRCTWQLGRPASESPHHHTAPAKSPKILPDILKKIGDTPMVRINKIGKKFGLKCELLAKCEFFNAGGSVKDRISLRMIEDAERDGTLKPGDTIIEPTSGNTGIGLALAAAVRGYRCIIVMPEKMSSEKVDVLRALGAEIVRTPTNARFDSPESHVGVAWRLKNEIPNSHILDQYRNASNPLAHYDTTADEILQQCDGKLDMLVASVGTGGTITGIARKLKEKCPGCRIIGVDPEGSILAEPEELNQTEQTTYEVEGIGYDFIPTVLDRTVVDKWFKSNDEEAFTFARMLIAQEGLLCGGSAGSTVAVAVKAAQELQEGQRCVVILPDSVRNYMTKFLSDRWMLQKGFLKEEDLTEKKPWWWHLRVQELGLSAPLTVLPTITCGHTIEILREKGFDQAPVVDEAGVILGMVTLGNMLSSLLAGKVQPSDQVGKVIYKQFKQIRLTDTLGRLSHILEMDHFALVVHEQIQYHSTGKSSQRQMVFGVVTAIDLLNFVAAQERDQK
Procedure: (§1) To evaluate the selectivity of Compounds 53 and 56, their effects on the activities of two other PLP-dependent enzymes, human cystathionine-β-synthase (CBS) and cystathionine-γ-lyase (CSE), were determined using a H2S-producing assay. Human CBS and CSE were expressed and purified in E. coli with a purity exceeding 90%, as confirmed by SDS-PAGE (Figures S4A and S5A). Subsequently, the H2S-producing activities of CBS and CSE were assessed in the presence of different concentrations of Compounds 53 and 56. A widely used CBS inhibitor, AOAA, and a specific CSE inhibitor, PAG, were used as positive controls (Figures S4B and S5B).
(§2) The H2S-producing activity of CBS was measured as previously described. The reaction mixture (200 μL) contained 50 mM of Hepes buffer (pH 7.4), 2 mM of homocysteine, 10 μM of PLP, 0.4 mM of lead nitrate, and 5 μg of CBS protein. It was preincubated at 37 °C for 3 min, and the reaction was initiated by the addition of 2 mM of cysteine. The reaction was monitored in a multifunctional microplate reader at 37 °C for 10 min. An extinction coefficient of 5500 M^−1 cm^−1 at 390 nm was used to calculate the lead sulfide concentration. The method used to determine CSE activity in the H2S-producing assay was identical to the CBS assay, except that 1 mM of cysteine was used as the sole substrate. […]

A549 cells = assay: Cellular iron content by atomic absorption spectroscopy; assay type: cell-based, human; conditions: 50 µM, 48 h
Procedure: A549 cells were seeded in a 6-well plate and grown to 40–60% confluence. […] The cells were then washed three times with PBS and digested with 0.25% trypsin (Servicebio, Wuhan, China) for 2 min. The cells were divided into two equal groups: group A and group B. In group A, the cells were lysed with RIPA lysis buffer supplemented with 1 mM of PMSF to extract the total proteins. Protein concentrations were measured using a BCA protein assay reagent kit. In group B, the cells were treated with concentrated nitric acid at 70 °C for 2 h. Once the cells were completely nitrated, the temperature was increased to 150 °C until the nitric acid had completely evaporated. Subsequently, the samples were diluted to 10 mL with a solution containing 1% HNO3 and 0.1% KCl, and the iron levels were measured using atomic absorption spectroscopy (AAS; Analytik Jena AG, Jena, Germany). The iron content was calculated based on the standard curve, and the values were normalized to the protein concentration.

[2] = molecular target: T2, cystathionine-γ-lyase (CSE) (Homo sapiens, UniProt P32929); assay: Selectivity assay, H2S-producing activity of CSE; assay type: biochemical; conditions: at 100 µM
T2 construct: made in house; host or cells: E. coli
T2 sequence (P32929 whole entry): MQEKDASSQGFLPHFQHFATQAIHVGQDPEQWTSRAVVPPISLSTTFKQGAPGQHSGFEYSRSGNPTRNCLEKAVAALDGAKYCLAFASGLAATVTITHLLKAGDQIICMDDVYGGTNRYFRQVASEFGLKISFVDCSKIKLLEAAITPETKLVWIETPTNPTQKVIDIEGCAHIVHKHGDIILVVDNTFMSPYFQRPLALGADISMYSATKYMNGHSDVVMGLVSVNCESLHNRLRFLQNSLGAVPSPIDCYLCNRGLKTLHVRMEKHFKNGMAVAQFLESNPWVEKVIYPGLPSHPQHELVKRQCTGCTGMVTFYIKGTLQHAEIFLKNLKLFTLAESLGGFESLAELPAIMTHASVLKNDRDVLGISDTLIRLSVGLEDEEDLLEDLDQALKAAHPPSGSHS
Procedure: as §1, §2

Compound: COc1cc(/C=N/NC(=O)COc2ccc(Cl)cc2Cl)ccc1O [Compound 53]
- inhibitory effect on CBS [1]: no significant inhibitory effects
- cellular iron content (A549 cells): significantly increased the cellular iron content
- inhibitory effect on CSE [2]: no significant inhibitory effects
